From patent publication US7993668B2, “Nutrient composition and composition for prevention/mitigation of digestive tract depression” (Ajinomoto Co., Inc., priority 2004, dated 2011)

Test system: male rat
Test: Onset of diarrhea due to intragastric administration of an elemental diet in fasted rats (stool state ranked 1-4)
Type: in vivo
Source text: According to a conventional method, under pentobarbital anesthesia, a catheter for elemental diet administration was inserted by operation in the stomach of a male rat (body weight about 270 g), and a recovery period of one week was given. For breeding, a regular rat feed and tap water were given, and free intake was allowed. After confirmation of recovery, the rat was fasted three nights to induce lower gastrointestinal function. The fasting schedule on the day before operation, the operation day and the day after operation in the case of surgery patients was imitated.
On the day of the test, the rats were divided into 3 groups, each rat was moved to a separate observation cage, and the onset of diarrhea due to the administration of an elemental diet shown below was observed. First, one pack (80 g) of elemental diet having the composition shown in Table 1 was dissolved in water (300 cc) and prepared to show 1 kcal/cc, which was used as elemental diet 1. Three groups of an elemental diet 1 administration group as a control, an elemental diet 2 administration group, to which 1.0 w/v % (0.88 w/v % as free glutamic acid) of sodium glutamate (MSG) was added, and an elemental diet 3 administration group, to which sodium chloride (0.35 w/v %) was added, were compared. Each test elemental diet was administered using an electric pump via the catheter inserted into the stomach. The administration was started from 10:30 AM and intermittently administered 4 times per hr at 7 mL/hr. Each test elemental diet administered to one rat was 28 mL in total. The state of stool was observed from the start of the administration until 10:30 AM the next morning and, based on the severity of the symptom, ranked in 4 levels of 1. normal stool or no stool, 2, soft stool (shape was maintained), 3, muddy stool (no shape) and 4, watery stool.
A method according to Example 1 was employed. […] Each test elemental diet was administered using an electric pump via the catheter inserted into the stomach.
A method according to Example 1 was employed. Three groups of an elemental diet 1 administration group having the composition shown in a separate table as a control, an elemental diet 6 administration group, to which 0.04 w/v % (0.036 w/v % as free guanylic acid) of sodium guanylate (GMP) was added, and an elemental diet 7 administration group, to which 0.20 w/v % (0.18 w/v % as free guanylic acid) was added, were compared. Each test elemental diet was administered using an electric pump via the catheter inserted into the stomach.

[1] = Example 1, elemental diet 3 with 0.35 w/v % sodium chloride, out of 11 cases
[2] = Example 3, elemental diet 6 with 0.04 w/v % sodium guanylate, out of 13 cases
[3] = Example 3, elemental diet 7 with 0.20 w/v % sodium guanylate, out of 13 cases

Compound: [Cl-].[Na+] [sodium chloride, reference compound]
- rank 1 observed [1]: 1 case
- rank 3 observed [1]: 6 cases

Compound: N[C@@H](CCC(=O)[O-])C(=O)[O-].[Na+].[Na+] [sodium glutamate]
- improvement of diarrhea (stool rank) vs non-addition group (Example 1, 1.0 w/v % sodium glutamate, Kruskal-Wallis, p<0.05): significant improvement effect
- rank 2 soft stool observed (po): 1 case
- rank 3 muddy stool observed (po): 2 cases

Compound: Nc1nc2c(ncn2[C@@H]2O[C@H](COP(=O)([O-])[O-])[C@@H](O)[C@H]2O)c(=O)[nH]1.[Na+].[Na+] [sodium guanylate]
- rank 1 normal stool or no stool observed (Example 3, elemental diet 6 with 0.04 w/v % sodium guanylate (0.036 w/v % as free guanylic acid), out of 13 cases): 3 cases
- rank 2 soft stool observed [2]: 1 case
- rank 4 watery stool observed [2]: 9 cases
- rank 1 normal stool or no stool observed (Example 3, elemental diet 7 with 0.20 w/v % sodium guanylate (0.18 w/v % as free guanylic acid), out of 13 cases): 3 cases
- rank 2 soft stool observed [3]: 1 case
- rank 4 watery stool observed [3]: 9 cases
- diarrhea symptom-improving effect by the addition (Example 3, sodium guanylate 0.04 and 0.20 w/v % addition groups vs non-addition group): diarrhea symptom-improving effect was considered to be observed
